The values that follow come from patent US8492368B2 (priority 2011, dated 2013).

The test system of one data set is rats suffering from TBI. The following applies: 16 mg/kg, 72 hours post-injury, moderate to severe brain injury, FIG. 1, p<0.05; cited from earlier work.
The test system of another data set is traumatic brain injury. Particulars: cited from earlier work; for factors of cell death, brain swelling and inflammation: TBI.
A further data set has as its system P-glycoprotein (PGP). Description: P-glycoprotein protein abundance in penumbral region of injured brain, FIG. 6. The following applies: 72 hours post-injury, vs vehicle and sham, p<0.05, FIG. 6. The data set is classed as in vivo, rodents.
The test system of data set [1] is rats that have suffered a concussion (mTBI). Description: Morris Water Maze latency to platform in mTBI (concussion) model, FIG. 8. The class given is in vivo. Particulars: vs vehicle-injured rats, p<0.05.
A further data set deals with severe TBI patients. The following applies: six months; cited from earlier work.
Data set [2] relates to male reproductive function. The following applies: males; cited from earlier work.
A further data set has as its system glutathione reductase. The following applies: 72 hours post-injury, compared to all other groups, FIG. 2, p<0.01; cited from earlier work.
For data set [3], the target named is T1, progesterone receptor (PR) (Homo sapiens, UniProt P06401).
T1 sequence (P06401 1-933): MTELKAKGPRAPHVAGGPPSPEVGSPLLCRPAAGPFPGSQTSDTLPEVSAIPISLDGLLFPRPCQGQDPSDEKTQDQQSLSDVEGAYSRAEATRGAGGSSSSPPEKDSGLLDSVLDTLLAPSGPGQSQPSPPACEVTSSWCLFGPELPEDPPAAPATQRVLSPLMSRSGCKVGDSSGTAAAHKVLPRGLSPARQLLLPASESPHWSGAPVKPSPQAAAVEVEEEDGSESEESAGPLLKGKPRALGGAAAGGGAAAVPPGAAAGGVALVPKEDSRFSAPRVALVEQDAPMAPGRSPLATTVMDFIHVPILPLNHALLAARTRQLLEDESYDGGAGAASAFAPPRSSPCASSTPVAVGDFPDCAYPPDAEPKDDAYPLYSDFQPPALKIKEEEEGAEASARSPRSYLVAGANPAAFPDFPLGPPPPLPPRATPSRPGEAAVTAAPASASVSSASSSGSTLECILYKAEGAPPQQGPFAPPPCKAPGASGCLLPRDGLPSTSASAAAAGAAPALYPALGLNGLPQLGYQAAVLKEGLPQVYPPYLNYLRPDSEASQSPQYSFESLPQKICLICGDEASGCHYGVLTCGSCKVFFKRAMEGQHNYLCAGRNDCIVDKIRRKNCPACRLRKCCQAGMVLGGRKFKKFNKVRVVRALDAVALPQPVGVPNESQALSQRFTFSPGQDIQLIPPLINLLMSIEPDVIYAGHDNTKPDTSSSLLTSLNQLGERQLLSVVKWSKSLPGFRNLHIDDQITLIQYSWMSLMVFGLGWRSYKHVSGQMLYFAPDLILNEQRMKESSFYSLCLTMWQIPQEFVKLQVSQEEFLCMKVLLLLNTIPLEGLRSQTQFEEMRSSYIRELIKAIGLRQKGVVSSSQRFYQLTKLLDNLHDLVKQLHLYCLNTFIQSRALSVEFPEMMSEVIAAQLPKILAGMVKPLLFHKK
The following applies: cited from earlier work.

The structures appear in SMILES notation.

Take `CC(=O)[C@H]1CC[C@H]2[C@@H]3CC[C@H]4C[C@H](O)CC[C@]4(C)[C@H]3CC[C@]12C` [ALLO, allopregnanolone]: in the data set with rats suffering from TBI, the “brain water content (measure of edema)” value is on record as “normalizes brain water content”. The “factors of cell death (caspase-3) and gliosis (GFAP)” value in the data set on traumatic brain injury (following injury) was “decreased”.
For the molecule `CC(=O)[C@H]1CC[C@H]2[C@@H]3CCC4=CC(=O)CC[C@]4(C)[C@H]3CC[C@]12C` [Prog, progesterone], the “protein abundance of P-glycoprotein (PGP)” value in the data set on P-glycoprotein (PGP) is given as “increase”. Besides, the “latency to platform, post-acute administration” value in data set [1] (15 minutes post mTBI (1 hour post)) is given as “decreases latency to platform”. Further, the “latency to platform, prophylactic administration” value in data set [1] (15 minutes prior to mTBI (1 hour prior)) is reported as “decreases latency to platform”. In addition, the “brain water content (measure of edema)” value in the data set on rats suffering from TBI is reported as “normalizes brain water content”. For the same molecule, the neurological outcomes long-term in the data set on severe TBI patients is reported as “better neurological outcomes”. Also, in data set [2], the “conversion of testosterone to dihydrotestosterone” value is “inhibits”, the “size of reproductive organs” value is listed as “reduces” and the spermatogenesis result is on record as “suppresses”. In addition, in the data set on traumatic brain injury, the “factors of cell death, brain swelling and inflammation” value is “equivalently reduce”. In addition, in the data set on traumatic brain injury (both rodent sexes following injury), the edema entry is “effectively attenuates”. Moreover, the “genes promoting the inflammatory cascade: Bcl-2, IL-1β and Cxcl-10” value in the data set on traumatic brain injury (following TBI, previous study) is recorded as “down-regulated”. Further, in the data set with traumatic brain injury (following injury), the “factors of cell death (caspase-3) and gliosis (GFAP)” value is “decreased”; the “inflammatory factors (TNF-α and IL-1β)” value is listed as “inhibiting”. Moreover, the “Neurological Severity Score (motor and cognitive functioning)” value in the data set with traumatic brain injury (rats following injury) is “significant improvements”.
`CC(=O)[C@@H]1CC[C@@H]2[C@H]3CCC4=CC(=O)CC[C@@]4(C)[C@@H]3CC[C@]21C` [ent-Prog, ent-progesterone]: the “protein abundance of P-glycoprotein (PGP)” value in the data set with P-glycoprotein (PGP) is “increase”. In addition, the “brain water content (measure of edema)” value with rats suffering from TBI is given as “normalizes brain water content”. Besides, the “anti-oxidant activity of glutathione reductase” value in the data set on glutathione reductase was “significantly increases”. Also, the “activation of PR-mediated transcription” value in data set [3] is given as “does not activate”. Moreover, the “factors of cell death, brain swelling and inflammation” value in the data set on traumatic brain injury is “equivalently reduce”.
